What follows are compounds tested against human P2X7 receptor (Homo sapiens (Human), UniProt Q99572, R270H) (assay: Evaluation of a human P2X7 receptor inhibitory activity (Yo-Pro uptake, BzATP stimulation, FLIPR TETRA)). Conditions: 1321N1 cells stably expressing human P2X7 receptor, Yo-Pro fluorescence.
Format: cell-based
Protocol: Evaluation of a human P2X7 receptor inhibitory activity Stably expressing cell line (1321N1 cell transfected with the human P2X7 receptor gene (GenBank accession number NM_002562.5 including T606C and G952A SNP)) was used. The cells were seeded in a 384-well microtiter plate at a concentration of 8000 cells/well and cultured in the medium (10% fetal bovine serum, 25 mM HEPES, 1% penicillin and streptomycin in DMEM) for one day at 37° C. under 5% carbon dioxide atmosphere. After replacing with 20 μL of the HBSS buffer (20 mM HEPES, 55.6 mM D-glucose, 1× HBSS(−), pH7.4-7.5), 15 μL of 17.3 μM Yo-Pro solution in the HBSS buffer was added. The plate was placed in high-throughput cellular screening system FLIPR TETRA (Molecullar Devices, LLC.) and 15 μL of 130 μM BzATP solution in the HBSS buffer was added. Measurement of fluorescence intensity by FLIPR TETRA was started. After eight minutes, 15 μL of DMSO solutions containing different concentrations of the compound of the present invention as prepared by dilution with the HBSS buffer were dispensed to each well through the built-in automatic dispenser, and the measurement of fluorescence intensity was continued for 20 minutes. The maximum fluorescence intensity without the compound of the present invention is calculated as 0% inhibition and the maximum fluorescence intensity when the reference compound was added is calculated as 100% inhibition. Changing values of fluorescence intensity by the compound of the present invention were calculated by difference between maximum and minimum fluorescence intensity for 20 minutes. Inhibition ratios (%) were calculated from the following equation:
[formula] IC50 was calculated using logistic approximation.
As for IC50 value, value to below 10 nmol/L is represented as “A”, value from 10 nmol/L to below 100 nmol/L is represented as “B”, value from 100 nmol/L to below 500 nmol/L is represented as “C”, and value from 500 nmol/L to below 1 μmol/L is represented as “D”.

human P2X7 receptor, sequence (Q99572 whole entry R270H): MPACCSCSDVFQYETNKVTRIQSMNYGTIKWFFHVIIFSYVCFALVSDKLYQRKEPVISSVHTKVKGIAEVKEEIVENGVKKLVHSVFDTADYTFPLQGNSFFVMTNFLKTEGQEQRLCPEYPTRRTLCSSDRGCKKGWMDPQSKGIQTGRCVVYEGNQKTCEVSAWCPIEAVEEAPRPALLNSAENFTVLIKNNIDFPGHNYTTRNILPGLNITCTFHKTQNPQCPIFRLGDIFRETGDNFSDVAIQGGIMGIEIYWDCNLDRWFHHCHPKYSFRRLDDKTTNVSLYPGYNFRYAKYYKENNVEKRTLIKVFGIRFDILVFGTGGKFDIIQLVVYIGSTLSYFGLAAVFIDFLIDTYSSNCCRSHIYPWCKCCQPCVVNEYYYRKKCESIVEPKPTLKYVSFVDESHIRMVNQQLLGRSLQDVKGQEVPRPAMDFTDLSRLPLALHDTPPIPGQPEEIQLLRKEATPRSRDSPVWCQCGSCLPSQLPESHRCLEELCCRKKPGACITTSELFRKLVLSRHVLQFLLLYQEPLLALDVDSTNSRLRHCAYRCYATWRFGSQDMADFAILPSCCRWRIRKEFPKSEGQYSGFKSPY

Compound	IC50
Cc1c(Cl)cccc1Nc1nc(=O)cc2n1C(c1ccccc1)COC2 (single isomer, unassigned) [Compound I-0003]	1.8 nM
O=c1cc2n(c(Nc3cccc4ncccc34)n1)C(c1ccccc1)CO2 (centres unmarked) [Compound I-0001]	16 nM
Cc1ccccc1Nc1nc(=O)cc2n1C(c1ccccc1)CCC2 (centres unmarked) [Compound I-0004]	37 nM
COc1c2n(c(Nc3cccc(Cl)c3C)nc1=O)C(c1ccccc1)CCO2 (centres unmarked) [Compound I-0009]	22 nM
COc1c2n(c(Nc3cc4sc(C)nc4cc3C)nc1=O)C(c1ccccc1)CC2 (centres unmarked) [Compound I-0032]	16 nM
CCc1nc(OC)ccc1Nc1nc(=O)cc2n1C(c1cc(F)cc(F)c1)CC2 (centres unmarked) [Compound I-0059]	11 nM
COc1ccc(/N=c2\[nH]c(=O)c(F)c3n2C(c2ccc(F)cc2)CC3)c(C)n1 (centres unmarked) [Compound I-0069]	10 nM

Same assay, conditions: 1321N1 cells stably expressing human P2X7 receptor, Yo-Pro fluorescence, class symbols

Compound	IC50
Cc1c(Cl)cccc1Nc1nc(=O)cc2n1C(c1ccccc1)CO2 (centres unmarked) [Compound I-0002]	< 10 nM
Cc1c(Cl)cccc1Nc1nc(=O)cc2n1C(c1ccccc1)CCC2 (centres unmarked) [Compound I-0005]	10 to 100 nM
Cc1c(Cl)cccc1Nc1nc(=O)cc2n1C(c1ccccc1)CCO2 (centres unmarked) [Compound I-0006]	10 to 100 nM
Cc1c(Cl)cccc1Nc1nc(=O)cc2n1C(c1ccccc1)CC2 (centres unmarked) [Compound I-0007]	< 10 nM
Cc1c(Cl)cccc1Nc1nc(=O)cc2n1C(c1cccc(Cl)c1)CC2 (centres unmarked) [Compound I-0008]	< 10 nM
COc1cc(C)c(Nc2nc(=O)cc3n2C(c2ccccc2)CC3)cc1OC (centres unmarked) [Compound I-0010]	< 10 nM
Cc1cc(Nc2nc(=O)cc3n2C(c2ccccc2)CC3)c(C)cc1Cl (centres unmarked) [Compound I-0011]	< 10 nM
Cc1cc(Nc2nc(=O)cc3n2C(c2ccc(F)c(Cl)c2)CC3)c(C)cc1Cl (centres unmarked) [Compound I-0012]	< 10 nM
COc1cc(C)c(Nc2nc(=O)cc3n2C(c2ccc(F)c(Cl)c2)CC3)cc1OC (centres unmarked) [Compound I-0013]	< 10 nM
COc1ccc(Nc2nc(=O)cc3n2C(c2ccccc2)CC3)c(C)c1 (centres unmarked) [Compound I-0014]	< 10 nM
Cc1ccccc1Nc1nc(=O)cc2n1C(c1ccccc1)CC2 (centres unmarked) [Compound I-0015]	10 to 100 nM
COc1ccc(C)c(Nc2nc(=O)cc3n2C(c2ccccc2)CC3)c1 (centres unmarked) [Compound I-0016]	10 to 100 nM
COc1cc(C)c(Nc2nc(=O)cc3n2C(c2ccc(F)cc2)CC3)cc1OC (centres unmarked) [Compound I-0017]	10 to 100 nM
COc1cc(C)c(Nc2nc(=O)cc3n2C(c2cccc(F)c2)CC3)cc1OC (centres unmarked) [Compound I-0018]	10 to 100 nM
COc1ccc(Nc2nc(=O)cc3n2C(c2ccccc2)CC3)cc1OC (centres unmarked) [Compound I-0019]	< 10 nM
COc1cc(C)c(Nc2nc(=O)cc3n2C(c2ccccc2)CC3)cc1C (centres unmarked) [Compound I-0020]	< 10 nM
COc1cc(C)c(Nc2nc(=O)cc3n2C(c2cc(F)c(F)c(F)c2)CC3)cc1OC (centres unmarked) [Compound I-0021]	10 to 100 nM
COc1cc(Nc2nc(=O)cc3n2C(c2ccccc2)CC3)c(C)cc1F (centres unmarked) [Compound I-0022]	< 10 nM
COc1ccc(Nc2nc(=O)cc3n2C(c2ccc(F)cc2)CC3)c(C)c1 (centres unmarked) [Compound I-0023]	< 10 nM
COc1cc(C)c(Nc2nc(=O)cc3n2C(c2ccccc2)CC3)cc1F (centres unmarked) [Compound I-0024]	10 to 100 nM
COc1cc(C)c(Nc2nc(=O)cc3n2C(c2ccc(F)c(F)c2)CC3)cc1OC (centres unmarked) [Compound I-0025]	10 to 100 nM
Cc1nc2cc(C)c(Nc3nc(=O)cc4n3C(c3ccc(F)cc3)CC4)cc2s1 (centres unmarked) [Compound I-0026]	< 10 nM

Compound	IC50
COc1cc(Nc2nc(=O)cc3n2C(c2ccccc2)CC3)c(C)cc1Cl (centres unmarked) [Compound I-0027]	< 10 nM
COc1cc(C)c(Nc2nc(=O)cc3n2C(c2ccccc2)CC3)cc1Cl (centres unmarked) [Compound I-0028]	< 10 nM
Cc1nc2cc(C)c(Nc3nc(=O)cc4n3[C@H](c3ccccc3)CC4)cc2s1 [Compound I-0029]	< 10 nM
COc1cc(C)c(Nc2nc(=O)cc3n2C(c2ccccc2)CC3)cn1 (centres unmarked) [Compound I-0030]	100 to 500 nM
COc1cc(C)c(Nc2nc(=O)c(OC)c3n2C(c2ccccc2)CC3)cc1C (centres unmarked) [Compound I-0031]	10 to 100 nM
COc1cc(Nc2nc(=O)cc3n2C(c2ccc(F)cc2)CC3)c(C)cc1Cl (centres unmarked) [Compound I-0033]	10 to 100 nM
COc1ccc(Nc2nc(=O)cc3n2C(c2ccccc2)CC3)c(C)n1 (centres unmarked) [Compound I-0034]	10 to 100 nM
COc1cc(Nc2nc(=O)cc3n2C(c2ccccc2)CC3)c(C)cn1 (centres unmarked) [Compound I-0035]	100 to 500 nM
COc1c2n(c(Nc3cc4sc(C)nc4cc3C)nc1=O)C(c1ccc(F)cc1)CC2 (centres unmarked) [Compound I-0036]	10 to 100 nM
COc1ccc(Nc2nc(=O)cc3n2C(c2ccc(F)c(Cl)c2)CC3)c(C)c1 (centres unmarked) [Compound I-0037]	< 10 nM
COc1ccc(Nc2nc(=O)cc3n2C(c2cc(F)cc(F)c2)CC3)c(C)c1 (centres unmarked) [Compound I-0038]	< 10 nM
CCc1cc(Nc2nc(=O)cc3n2C(c2ccccc2)CC3)c(C)cc1OC (centres unmarked) [Compound I-0039]	< 10 nM
Cc1cc2c(cc1Nc1nc(=O)cc3n1C(c1ccccc1)CC3)COC2 (centres unmarked) [Compound I-0040]	10 to 100 nM
COc1ccc(Nc2nc(=O)cc3n2C(c2ccc(F)c(F)c2)CC3)c(C)c1 (centres unmarked) [Compound I-0041]	< 10 nM
COc1ccc(Nc2nc(=O)cc3n2C(c2cc(F)c(F)c(F)c2)CC3)c(C)c1 (centres unmarked) [Compound I-0042]	< 10 nM
COc1nc(C)c(Nc2nc(=O)cc3n2C(c2ccccc2)CC3)cc1C (centres unmarked) [Compound I-0043]	< 10 nM
COc1cc(Nc2nc(=O)c(OC)c3n2C(c2ccccc2)CC3)c(C)cc1Cl (centres unmarked) [Compound I-0044]	10 to 100 nM
COc1cc(Nc2nc(=O)c(OC)c3n2C(c2ccccc2)CC3)c(C)cc1F (centres unmarked) [Compound I-0045]	10 to 100 nM
COc1ccc(Nc2nc(=O)c(F)c3n2C(c2ccccc2)CC3)c(C)c1 (centres unmarked) [Compound I-0046]	10 to 100 nM
COc1ccc(Nc2nc(=O)cc3n2C(c2cc(F)cc(F)c2)CC3)c(C)n1 (centres unmarked) [Compound I-0047]	10 to 100 nM
COc1ccc(Nc2nc(=O)cc3n2C(c2cc(F)c(F)c(F)c2)CC3)c(C)n1 (centres unmarked) [Compound I-0048]	10 to 100 nM
COc1ccc(Nc2nc(=O)cc3n2C(c2cccc(F)c2)CC3)c(C)c1 (centres unmarked) [Compound I-0049]	< 10 nM

Compound	IC50
COc1ccc(Nc2nc(=O)cc3n2C(c2cccc(Cl)c2)CC3)c(C)c1 (centres unmarked) [Compound I-0050]	< 10 nM
COc1nc(C)c(Nc2nc(=O)cc3n2C(c2cc(F)cc(F)c2)CC3)cc1C (centres unmarked) [Compound I-0051]	10 to 100 nM
COc1ccc(Nc2nc(=O)c(OC)c3n2C(c2ccccc2)CC3)c(C)c1 (centres unmarked) [Compound I-0052]	10 to 100 nM
Cc1nc2cc(C)c(/N=c3\[nH]c(=O)cc4n3C(c3cc(F)cc(F)c3)CC4)cc2s1 (centres unmarked) [Compound I-0053]	10 to 100 nM
Cc1nc2cc(C)c(/N=c3\[nH]c(=O)c(F)c4n3C(c3ccc(F)cc3)CC4)cc2s1 (centres unmarked) [Compound I-0054]	< 10 nM
CCOc1ccc(Nc2nc(=O)cc3n2C(c2cc(F)cc(F)c2)CC3)c(C)n1 (centres unmarked) [Compound I-0055]	10 to 100 nM
Cc1cc(OC(F)F)ccc1/N=c1\[nH]c(=O)cc2n1C(c1cc(F)cc(F)c1)CC2 (centres unmarked) [Compound I-0056]	10 to 100 nM
Cc1cc(OC(F)F)ccc1/N=c1\[nH]c(=O)c(F)c2n1C(c1ccc(F)cc1F)CC2 (centres unmarked) [Compound I-0057]	10 to 100 nM
Cc1nc2cc(C)c(Nc3nc(=O)c(F)c4n3C(c3ccc(F)cc3F)CC4)cc2s1 (centres unmarked) [Compound I-0058]	< 10 nM
CCc1nc(OC)ccc1Nc1nc(=O)cc2n1C(c1cc(F)cc(F)c1)CC2 (centres unmarked) [Compound I-0059]	10 to 100 nM
COc1ccc(C)c(/N=c2\[nH]c(=O)cc3n2C(c2cc(F)cc(F)c2)CC3)c1 (centres unmarked) [Compound I-0061]	10 to 100 nM
COc1cc(/N=c2\[nH]c(=O)c(F)c3n2C(c2ccc(F)cc2F)CC3)c(C)cc1F (centres unmarked) [Compound I-0062]	10 to 100 nM
COc1cc(/N=c2\[nH]c(=O)cc3n2C(c2cc(F)cc(F)c2)CC3)c(C)cc1F (centres unmarked) [Compound I-0063]	10 to 100 nM
COc1ccc(Nc2nc(=O)c(F)c3n2C(c2ccc(F)cc2F)CC3)c(C)c1 (centres unmarked) [Compound I-0064]	10 to 100 nM
Cc1cc(OC(F)F)c(C)cc1/N=c1\[nH]c(=O)cc2n1C(c1ccccc1)CC2 (centres unmarked) [Compound I-0065]	< 10 nM
Cc1cc2c(cc1Nc1nc(=O)cc3n1C(c1cc(F)cc(F)c1)CC3)COC2 (centres unmarked) [Compound I-0066]	< 10 nM
Cc1cc2c(cc1Nc1nc(=O)cc3n1C(c1ccc(F)cc1)CC3)COC2 (centres unmarked) [Compound I-0067]	< 10 nM
COc1ccc(/N=c2\[nH]c(=O)c(F)c3n2C(c2ccc(F)cc2F)CC3)c(C)n1 (centres unmarked) [Compound I-0068]	10 to 100 nM
COc1ccc(/N=c2\[nH]c(=O)cc3n2C(c2ccc(F)cc2)CC3)c(C)n1 (centres unmarked) [Compound I-0070]	10 to 100 nM
COc1cnc(C)c(Nc2nc(=O)cc3n2C(c2cc(F)cc(F)c2)CC3)c1 (centres unmarked) [Compound I-0071]	10 to 100 nM
